Active and inactive are the calls of the source.
Columns and labels:
Large T antigen = Large T antigen (Simian virus 40, UniProt P03070); format: functional, Betapolyomavirus macacae;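 note: Confirmatory-stage PubChem screen for compounds that inhibit SV40 T antigen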
[1] = C. albicans growth with fluconazole, confirmation, fluorescence, retest (AID 2467); format: functional, cell-based
Caspase-6 = target: T1, Caspase-6 (Homo sapiens, UniProt P55212); test: human caspase-6 inhibitors, dose response, biochemical, VEID-R110 fluorescence, cherry-pick (AID 720632)
T1 sequence (P55212 whole entry): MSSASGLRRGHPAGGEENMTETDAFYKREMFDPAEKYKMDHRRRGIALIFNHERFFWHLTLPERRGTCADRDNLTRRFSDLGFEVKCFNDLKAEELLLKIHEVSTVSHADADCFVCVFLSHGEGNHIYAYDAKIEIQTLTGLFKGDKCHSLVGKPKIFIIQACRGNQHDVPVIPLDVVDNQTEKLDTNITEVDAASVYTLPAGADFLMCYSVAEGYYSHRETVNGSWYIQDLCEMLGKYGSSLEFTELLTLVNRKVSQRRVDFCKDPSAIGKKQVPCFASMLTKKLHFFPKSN

Albumin = Albumin (Bos taurus, UniProt P02769); test: Counterscreen for inhibitors of T-cell receptor (TCR)-CD3 interaction: Fluorescence-based biochemical high throughput dose response assay to identify inhibitors of T-cell receptor (TCR)-CD3 interaction using a TAMRA-labeled BSA probe.; format: functional
Albumin, sequence (P02769 whole entry): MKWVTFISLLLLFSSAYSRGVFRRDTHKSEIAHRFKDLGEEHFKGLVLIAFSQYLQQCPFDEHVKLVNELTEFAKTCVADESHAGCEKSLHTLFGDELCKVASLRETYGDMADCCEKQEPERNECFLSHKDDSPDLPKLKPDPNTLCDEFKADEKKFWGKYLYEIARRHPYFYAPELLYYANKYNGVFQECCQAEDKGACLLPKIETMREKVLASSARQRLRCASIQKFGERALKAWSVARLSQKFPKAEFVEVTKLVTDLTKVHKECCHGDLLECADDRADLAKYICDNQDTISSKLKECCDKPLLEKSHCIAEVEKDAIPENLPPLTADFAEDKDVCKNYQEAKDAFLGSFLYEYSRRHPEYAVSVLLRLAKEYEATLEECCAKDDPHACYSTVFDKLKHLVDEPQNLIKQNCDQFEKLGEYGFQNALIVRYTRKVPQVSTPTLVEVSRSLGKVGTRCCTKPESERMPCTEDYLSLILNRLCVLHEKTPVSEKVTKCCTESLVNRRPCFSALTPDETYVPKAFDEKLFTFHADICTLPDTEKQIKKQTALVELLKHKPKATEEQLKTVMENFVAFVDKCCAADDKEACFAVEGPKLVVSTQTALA

[2] = NIH-3T3 fibroblast cytotoxicity, dose response, cytotoxicity control, cell-based, fluorescence, Alamar Blue, secondary assay (AID 2327); format: functional;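 note: NIH-3T3 mouse fibroblasts cultured with fluconazole at 8 µg/mL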
[3] = target: T2, Apoptotic protease-activating factor 1 (Homo sapiens, UniProt O14727); test: SAR analysis of small molecule Activators of Apaf-1 in a Fluorescent assay.; format: functional; details: read-out: EC50_Mean;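 note: caspase-3 cleavage of fluorogenic Rh110 DEVD substrate downstream of apoptosome activation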
T2 sequence (O14727 whole entry): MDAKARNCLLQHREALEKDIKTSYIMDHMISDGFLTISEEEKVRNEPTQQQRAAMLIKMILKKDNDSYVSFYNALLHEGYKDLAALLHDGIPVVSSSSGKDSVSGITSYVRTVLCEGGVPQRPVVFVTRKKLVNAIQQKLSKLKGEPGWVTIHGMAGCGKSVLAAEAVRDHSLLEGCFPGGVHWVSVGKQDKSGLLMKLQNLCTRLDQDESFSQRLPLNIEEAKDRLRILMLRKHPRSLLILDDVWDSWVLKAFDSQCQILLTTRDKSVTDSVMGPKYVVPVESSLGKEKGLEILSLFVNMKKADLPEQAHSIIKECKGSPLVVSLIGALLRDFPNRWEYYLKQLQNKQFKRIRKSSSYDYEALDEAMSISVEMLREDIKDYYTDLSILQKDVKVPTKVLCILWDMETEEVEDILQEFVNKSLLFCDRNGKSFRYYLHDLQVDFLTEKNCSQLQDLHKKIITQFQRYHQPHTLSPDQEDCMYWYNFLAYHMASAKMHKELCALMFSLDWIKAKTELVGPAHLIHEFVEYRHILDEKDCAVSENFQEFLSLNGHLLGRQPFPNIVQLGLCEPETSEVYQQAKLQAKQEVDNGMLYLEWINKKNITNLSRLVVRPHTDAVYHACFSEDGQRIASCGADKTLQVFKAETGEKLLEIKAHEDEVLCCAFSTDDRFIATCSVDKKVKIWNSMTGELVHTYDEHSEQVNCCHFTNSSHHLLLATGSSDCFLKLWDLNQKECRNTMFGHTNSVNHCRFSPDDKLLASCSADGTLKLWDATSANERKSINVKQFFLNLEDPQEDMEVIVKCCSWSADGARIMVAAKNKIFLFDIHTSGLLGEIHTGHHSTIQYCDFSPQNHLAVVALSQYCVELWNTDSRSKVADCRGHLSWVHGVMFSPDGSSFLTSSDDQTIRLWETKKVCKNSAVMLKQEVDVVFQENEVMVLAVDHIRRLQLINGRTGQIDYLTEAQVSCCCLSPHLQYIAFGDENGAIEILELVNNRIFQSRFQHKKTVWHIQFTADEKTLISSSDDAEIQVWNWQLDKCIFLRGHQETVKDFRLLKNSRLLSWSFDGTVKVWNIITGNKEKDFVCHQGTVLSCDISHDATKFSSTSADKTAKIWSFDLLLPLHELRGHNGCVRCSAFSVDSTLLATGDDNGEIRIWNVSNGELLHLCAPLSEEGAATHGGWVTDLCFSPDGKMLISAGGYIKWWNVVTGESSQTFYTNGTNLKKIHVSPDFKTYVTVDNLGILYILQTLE

[4] = target: T3, Beta-2 adrenergic receptor (Homo sapiens, UniProt P07550); test: beta2AR agonists driving receptor internalization, dose response, cell-based, FAP fluorogen, flow cytometry, cherry pick 1 (AID 588763); format: functional
T3 sequence (P07550 whole entry): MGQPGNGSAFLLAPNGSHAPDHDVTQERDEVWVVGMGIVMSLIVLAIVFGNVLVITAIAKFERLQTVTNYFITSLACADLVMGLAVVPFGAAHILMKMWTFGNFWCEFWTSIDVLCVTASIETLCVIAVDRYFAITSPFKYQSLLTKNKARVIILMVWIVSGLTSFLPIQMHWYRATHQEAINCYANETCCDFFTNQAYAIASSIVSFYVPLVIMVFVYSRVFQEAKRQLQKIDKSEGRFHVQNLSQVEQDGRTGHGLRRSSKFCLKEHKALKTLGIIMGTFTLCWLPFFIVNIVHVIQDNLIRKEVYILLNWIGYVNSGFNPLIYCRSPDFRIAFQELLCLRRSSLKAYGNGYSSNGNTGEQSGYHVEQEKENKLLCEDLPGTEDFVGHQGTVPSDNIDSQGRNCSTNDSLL

[5] = target: T3, Beta-2 adrenergic receptor; test: Dose response for HTS for Beta-2AR agonists via FAP method from Powderset3.; format: functional
[6] = target: Tyrosine-protein phosphatase non-receptor type 11 (Homo sapiens, UniProt Q06124); test: SHP2 phosphatase inhibition, dose response, selectivity assay for STEP inhibitor project, biochemical (AID 602367); format: functional; details: read-out: IC50_Mean
Tyrosine-protein phosphatase non-receptor type 11, sequence (Q06124 whole entry): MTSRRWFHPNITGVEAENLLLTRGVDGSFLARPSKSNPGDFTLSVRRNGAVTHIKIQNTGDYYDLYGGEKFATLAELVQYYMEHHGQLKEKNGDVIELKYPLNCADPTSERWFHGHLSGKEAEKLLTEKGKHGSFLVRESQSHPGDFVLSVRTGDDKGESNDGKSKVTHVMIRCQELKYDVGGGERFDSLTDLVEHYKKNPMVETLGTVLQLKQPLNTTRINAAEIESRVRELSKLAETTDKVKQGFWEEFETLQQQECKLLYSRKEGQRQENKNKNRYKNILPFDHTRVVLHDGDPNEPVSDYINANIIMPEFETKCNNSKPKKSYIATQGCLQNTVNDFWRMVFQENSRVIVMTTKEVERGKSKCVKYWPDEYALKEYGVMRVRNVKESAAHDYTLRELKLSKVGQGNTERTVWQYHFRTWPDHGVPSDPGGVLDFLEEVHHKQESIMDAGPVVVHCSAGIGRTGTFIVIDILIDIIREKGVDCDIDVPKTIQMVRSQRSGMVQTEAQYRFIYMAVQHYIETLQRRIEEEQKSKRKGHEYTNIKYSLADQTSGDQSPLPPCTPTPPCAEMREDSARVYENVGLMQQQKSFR

cells [7] = format: functional, cell-based
[8] = target: Dual specificity protein phosphatase 3 (Homo sapiens, UniProt P51452); test: VHR phosphatase inhibition, dose response, selectivity assay for STEP inhibitor project, biochemical (AID 602374); format: functional; details: read-out: IC50_Mean
Dual specificity protein phosphatase 3, sequence (P51452 whole entry): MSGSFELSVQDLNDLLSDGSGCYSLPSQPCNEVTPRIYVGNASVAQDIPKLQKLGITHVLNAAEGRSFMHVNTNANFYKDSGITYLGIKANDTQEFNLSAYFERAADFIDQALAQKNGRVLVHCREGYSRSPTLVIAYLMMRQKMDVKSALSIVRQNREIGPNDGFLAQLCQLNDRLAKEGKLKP

[9] = target: T4, Trace amine-associated receptor 1 (Homo sapiens, UniProt Q96RJ0); test: Fluorescence-based cell-based high throughput dose response assay to identify agonists of the human trace amine associated receptor 1 (TAAR1).; format: functional
T4 sequence (Q96RJ0 whole entry): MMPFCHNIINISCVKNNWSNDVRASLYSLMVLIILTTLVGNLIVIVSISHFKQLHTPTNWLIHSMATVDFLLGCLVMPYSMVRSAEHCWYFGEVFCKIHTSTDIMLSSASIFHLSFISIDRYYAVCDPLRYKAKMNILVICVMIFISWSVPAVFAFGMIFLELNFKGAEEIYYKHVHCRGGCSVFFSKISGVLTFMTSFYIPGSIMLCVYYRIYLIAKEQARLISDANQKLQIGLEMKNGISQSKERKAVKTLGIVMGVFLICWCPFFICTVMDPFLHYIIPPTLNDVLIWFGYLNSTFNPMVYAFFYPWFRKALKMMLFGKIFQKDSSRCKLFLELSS

[10] = target: Tyrosine-protein phosphatase non-receptor type 5 (Homo sapiens, UniProt P54829); test: STEP phosphatase inhibitors, confirmation, biochemical, fluorescence intensity, uHTS hits (AID 602372); format: functional; details: read-out: IC50_Mean
Tyrosine-protein phosphatase non-receptor type 5, sequence (P54829 whole entry): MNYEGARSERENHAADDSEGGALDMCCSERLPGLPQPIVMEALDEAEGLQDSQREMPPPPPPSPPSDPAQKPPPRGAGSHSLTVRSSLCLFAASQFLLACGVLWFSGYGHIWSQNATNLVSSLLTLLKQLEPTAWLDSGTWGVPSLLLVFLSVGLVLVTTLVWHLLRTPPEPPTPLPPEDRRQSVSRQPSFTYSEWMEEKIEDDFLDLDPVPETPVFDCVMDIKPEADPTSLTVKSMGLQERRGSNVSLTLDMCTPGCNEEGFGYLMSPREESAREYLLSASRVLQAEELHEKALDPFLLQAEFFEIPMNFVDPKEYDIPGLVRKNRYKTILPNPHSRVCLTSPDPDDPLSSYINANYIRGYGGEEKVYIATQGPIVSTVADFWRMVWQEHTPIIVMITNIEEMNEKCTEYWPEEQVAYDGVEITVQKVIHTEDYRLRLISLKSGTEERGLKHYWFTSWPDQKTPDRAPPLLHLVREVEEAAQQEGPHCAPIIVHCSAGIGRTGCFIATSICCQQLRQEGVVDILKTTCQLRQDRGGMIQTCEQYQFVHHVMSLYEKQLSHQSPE

cells [11] = format: functional, cell-based; remark: listed apart in the source
[12] = target: T4, Trace amine-associated receptor 1; test: Counterscreen for agonists of the human trace amine associated receptor 1 (hTAAR1): Fluorescence-based cell-based high throughput dose response assay to identify hTAAR1 agonist that also desensitize TAAR1 receptor response.; format: functional
[13] = target: T4, Trace amine-associated receptor 1; test: Counterscreen for antagonists of the human trace amine associated receptor 1 (hTAAR1): Fluorescence-based cell-based high throughput dose response assay to identify TAAR1 Agonists.; format: functional
[14] = Counterscreen for antagonists of the human trace amine associated receptor 1 (hTAAR1): Fluorescence-based cell-based high throughput dose response assay to identify nonselective Ga16 antagonists.; format: functional
[15] = target: T4, Trace amine-associated receptor 1; test: Fluorescence-based cell-based high throughput dose response assay to identify antagonists of the human trace amine associated receptor 1 (TAAR1).; format: functional
[16] = Counterscreen for […] of the human trace amine associated receptor 1 (TAAR1): Fluorescence-based cell-based high throughput dose response assay to identify nonselective Ga16 agonists.; format: functional
[17] = target: T5, Sentrin-specific protease 8 (Homo sapiens, UniProt Q96LD8); format: functional
T5 sequence (Q96LD8 whole entry): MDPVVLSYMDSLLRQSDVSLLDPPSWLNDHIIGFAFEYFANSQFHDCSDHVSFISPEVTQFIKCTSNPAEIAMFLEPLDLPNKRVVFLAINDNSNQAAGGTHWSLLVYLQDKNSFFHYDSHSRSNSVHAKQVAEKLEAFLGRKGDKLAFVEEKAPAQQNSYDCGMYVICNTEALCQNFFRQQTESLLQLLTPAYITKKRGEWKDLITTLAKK

[18] = target: T5, Sentrin-specific protease 8; format: functional; remark: listed apart in the source
[19] = inhibitors of CMV-promoter luciferase reporter, dose response, counter-screen for Pax8 inhibitor project, cell-based, HEK293, luminescence, dry powder (AID 743020); format: functional
Paired box protein Pax-8 = Paired box protein Pax-8 (Homo sapiens, UniProt Q06710); test: inhibitors of PAX8-driven TPO luciferase reporter, dose response, RMG-I cells, cherry-pick (AID 687027); format: functional, cell-based;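 note: luciferase reporter driven by Pax8 target thyroperoxidase promoter measured by SteadyGlo luminescence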
Paired box protein Pax-8, sequence (Q06710 whole entry): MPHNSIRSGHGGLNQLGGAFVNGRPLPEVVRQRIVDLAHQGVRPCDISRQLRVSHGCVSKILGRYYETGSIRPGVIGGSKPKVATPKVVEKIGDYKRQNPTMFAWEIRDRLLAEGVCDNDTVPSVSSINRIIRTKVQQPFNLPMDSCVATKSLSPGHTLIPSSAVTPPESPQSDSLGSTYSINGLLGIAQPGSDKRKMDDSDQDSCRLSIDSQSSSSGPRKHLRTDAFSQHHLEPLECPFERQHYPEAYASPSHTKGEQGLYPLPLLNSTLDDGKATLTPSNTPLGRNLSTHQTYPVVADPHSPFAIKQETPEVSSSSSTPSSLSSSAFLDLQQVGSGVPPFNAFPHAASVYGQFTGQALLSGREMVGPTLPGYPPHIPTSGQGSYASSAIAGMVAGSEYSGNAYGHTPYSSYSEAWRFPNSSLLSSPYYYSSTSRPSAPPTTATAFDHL

[20] = target: Adenosylmethionine-8-amino-7-oxononanoate aminotransferase (Mycobacterium tuberculosis, UniProt P9WQ81); test: Mycobacterium tuberculosis BioA enzyme inhibitor Measured in Biochemical System Using Plate Reader - 2163-02_Inhibitor_Dose_CherryPick_Activity.; format: functional, Mycobacterium tuberculosis UT205
Adenosylmethionine-8-amino-7-oxononanoate aminotransferase, sequence (P9WQ81 whole entry): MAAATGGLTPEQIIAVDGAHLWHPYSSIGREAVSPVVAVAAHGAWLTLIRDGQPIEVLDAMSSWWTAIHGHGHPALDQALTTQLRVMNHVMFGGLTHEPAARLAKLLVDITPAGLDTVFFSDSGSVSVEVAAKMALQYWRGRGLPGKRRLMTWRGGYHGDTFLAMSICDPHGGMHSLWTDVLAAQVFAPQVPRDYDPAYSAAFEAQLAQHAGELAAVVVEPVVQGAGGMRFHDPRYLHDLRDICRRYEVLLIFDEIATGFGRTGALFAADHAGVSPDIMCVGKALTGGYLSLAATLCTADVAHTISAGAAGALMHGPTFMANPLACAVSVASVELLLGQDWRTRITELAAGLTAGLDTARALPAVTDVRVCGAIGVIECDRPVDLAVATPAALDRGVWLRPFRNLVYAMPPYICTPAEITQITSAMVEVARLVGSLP

Beta-lactamase [21] = target: Beta-lactamase (Pseudomonas aeruginosa, UniProt Q79MP6);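 note: biochemical dose-response test of metallo-beta-lactamase enzyme inhibition, read out by epi-absorbance; purified recombinant IMP-1 metallo-beta-lactamase with nitrocefin as substrate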
Beta-lactamase (Pseudomonas aeruginosa, UniProt Q79MP6), sequence (Q79MP6 whole entry): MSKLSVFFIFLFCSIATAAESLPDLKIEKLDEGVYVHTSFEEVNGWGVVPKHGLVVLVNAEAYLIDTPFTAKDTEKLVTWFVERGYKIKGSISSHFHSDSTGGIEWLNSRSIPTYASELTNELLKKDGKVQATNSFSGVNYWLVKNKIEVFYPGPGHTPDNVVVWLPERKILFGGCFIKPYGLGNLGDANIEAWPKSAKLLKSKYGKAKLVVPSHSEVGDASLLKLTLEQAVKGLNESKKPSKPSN

Beta-lactamase [22] = target: Beta-lactamase (Salmonella choleraesuis (strain SC-B67), UniProt Q5J463)
Beta-lactamase (Salmonella choleraesuis (strain SC-B67), UniProt Q5J463), sequence (Q5J463 whole entry, the tested form may be a part): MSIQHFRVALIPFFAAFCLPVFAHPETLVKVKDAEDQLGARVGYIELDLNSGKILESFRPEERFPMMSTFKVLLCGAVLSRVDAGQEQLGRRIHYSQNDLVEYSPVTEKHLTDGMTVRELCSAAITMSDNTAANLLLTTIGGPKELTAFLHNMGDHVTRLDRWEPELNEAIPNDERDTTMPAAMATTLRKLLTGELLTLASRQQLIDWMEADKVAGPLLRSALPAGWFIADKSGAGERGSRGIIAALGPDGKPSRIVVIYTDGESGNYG

[23] = inhibitors of clade B AD8 Env fusion, dose response, cell-based, cherry-pick (AID 652062); format: functional;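 note: luciferase signal from cell-cell fusion driven by HIV-1 clade B AD8 Env; potency is for inhibitors of fusion seen as a drop in luminescence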
[24] = inhibitors of HIV Env-driven cell fusion, dose response, cherry-pick (AID 652057); format: functional, cell-based
[25] = off-target signal loss in HeLa-CEM21 co-culture – HeLa F-luc CTL cells, cherry-picked, counter-screen for HIV-1 Env fusion inhibitor project, dose response (AID 652040); format: functional, cell-based;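 note: potency for signal decrease marking cytotoxic or nonspecific inhibition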
[26] = CEM21 lymphoblast cell cytotoxicity, dose response, cytotoxicity control for viral fusion inhibitor project, CellTiter-Glo luminescence, cherry-picked (AID 652042); format: functional, cell-based;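 note: potency for signal decrease meaning cytotoxicity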
[27] = ZM109 Env clade C HIV-1 fusion inhibitors, dose response, HeLa effector, CEM target cells, luciferase, cherry-pick (AID 652058); format: functional, cell-based
[28] = LMP1-driven NF-kB reporter inhibition, dose response, cell-based, luciferase reporter, luminescence, dry powder, set 2 (AID 624376); format: functional
[29] = HEK293T cell cytotoxicity, dose response, cytotoxicity control for HIV Vif inhibitor project, cherry-picks (AID 652208); format: functional, cell-based

Large T antigen, sequence (P03070 whole entry): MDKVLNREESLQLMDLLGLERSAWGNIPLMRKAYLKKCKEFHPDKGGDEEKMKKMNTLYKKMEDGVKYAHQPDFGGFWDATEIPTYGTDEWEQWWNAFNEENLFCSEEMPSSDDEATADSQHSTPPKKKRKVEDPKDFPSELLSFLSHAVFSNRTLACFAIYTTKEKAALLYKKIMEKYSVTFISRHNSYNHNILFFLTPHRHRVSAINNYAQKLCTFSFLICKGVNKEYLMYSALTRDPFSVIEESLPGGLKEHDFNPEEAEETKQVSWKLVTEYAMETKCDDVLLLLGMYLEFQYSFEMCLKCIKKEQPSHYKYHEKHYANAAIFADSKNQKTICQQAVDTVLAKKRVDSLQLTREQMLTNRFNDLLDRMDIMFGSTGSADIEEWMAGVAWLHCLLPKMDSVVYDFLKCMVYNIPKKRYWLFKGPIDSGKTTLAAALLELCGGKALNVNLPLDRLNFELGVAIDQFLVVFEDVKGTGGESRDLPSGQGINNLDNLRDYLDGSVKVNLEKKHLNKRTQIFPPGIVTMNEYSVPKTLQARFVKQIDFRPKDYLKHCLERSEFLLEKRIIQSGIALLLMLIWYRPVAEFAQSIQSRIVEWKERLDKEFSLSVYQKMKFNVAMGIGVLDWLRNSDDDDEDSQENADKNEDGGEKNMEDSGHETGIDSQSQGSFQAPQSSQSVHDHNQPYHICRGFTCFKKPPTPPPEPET

## C/C(=N/NC(=O)c1cc(O)c(O)c(O)c1)c1ccc([N+](=O)[O-])cc1
Large T antigen
  IC50: 8.68 µM (active)
[1]
  EC50: > 38 µM (not active)
Caspase-6
  AC50: 27.5 µM (active)
Albumin
  IC50: > 94.1 µM (inactive)
[2]
  EC50: > 160 µM (inactive)

## COC(=O)[C@@H]1COC(c2ccc(F)cc2F)=N1
[3]
  EC50: > 100 µM (inactive)

## CC(=O)Nc1ccc(S(=O)(=O)N2CCC(Oc3ccc(-n4cnnn4)cc3)CC2)cc1
[4]
  EC50: 0.126 µM (active)
[5]
  EC50: 0.0366 µM (active)

## NS(=O)(=O)c1ccc(N/C(S)=N\CCc2ccccc2)cc1
[6]
  IC50: 5.84 µM (active)
Cells [7]
  EC50: > 29.9 µM (inactive)
[8]
  IC50: 3.17 µM (active)
[9]
  EC50: 2.56 µM (active)
[10]
  IC50: > 80 µM (inactive)
Cells [11]
  IC50: > 29.9 µM (inactive)
[12]
  IC50: 7.06 µM (active)

## Cc1cc(/C=N\NC(=O)CC(=O)NC2CCCCC2)c(C)n1-c1ccc(Cl)c(Cl)c1
[13]
  EC50: 7.54 µM (active)
[14]
  IC50: 15.3 µM (inactive)
[15]
  IC50: 0.915 µM (active)
[16]
  EC50: > 29.9 µM (inactive)

## O=C(COC(=O)c1ccc([N+](=O)[O-])o1)NCc1ccc2c(c1)OCO2
[17]
  IC50: 5.11 µM (active)
[18]
  IC50: 11.1 µM (active)

## C[C@@H]1CCCCO[C@@H](CN(C)C(=O)Nc2ccc(F)cc2)[C@H](C)CN([C@@H](C)CO)C(=O)c2cc(NC(=O)Nc3ccc(C(F)(F)F)cc3)ccc2O1
[19]
  AC50: 67.7 µM (active)
Paired box protein Pax-8
  AC50: 4.11 µM (active)

## N#C[C@H]1[C@@H](c2ccccc2)[C@@H](CO)N1C(=O)Nc1cccc(F)c1
[20]
  AC50: 1.76 µM (active)

## CC(=O)Nc1ccc(N2C(=O)c3cccc4c(O)ccc(c34)C2=O)cc1
Beta-lactamase [21]
  IC50: 13.7 µM (inactive)
Beta-lactamase [22]
  IC50: 7 µM (active)

## C[C@H]1CNC(=O)c2c(C(=O)N3CCN(C(=O)OC(C)(C)C)CC3)ncn21
[23]
  AC50: 4.38 µM (active)
[24]
  AC50: 0.805 µM (active)
[25]
  AC50: 2.18 µM (active)
[26]
  AC50: 47.9 µM (active)
[27]
  AC50: 3.02 µM (active)

## COc1ccc(S(=O)(=O)N(C)C[C@H]2Oc3ncc(/C=C/c4ccccc4)cc3C(=O)N([C@H](C)CO)C[C@@H]2C)cc1
[28]
  AbsAC35: 45.64 µM

## COc1ccc(S(=O)(=O)Nc2cccc3ccc(O)cc23)cc1
[29]
  AC50: > 52 µM (inactive)

Reference: ChEMBL document CHEMBL1201862, “PubChem BioAssay data set” (2004)
